The text below walks through data of patent publication US20230381146A1, “SUBSTITUTED HETEROARYL COMPOUNDS AND USE THEREOF” (HELIOS HUAMING BIOPHARMA CO., LTD., priority 2020, published 2023).

The target in the experiment is PAD4 (Homo sapiens, UniProt Q9UM07). Briefly: PAD4 Inhibition Assay (citrulline formation from BAEE substrate). As to conditions: PAD4 75 nM, 60 minute preincubation at 37° C., 90 minutes. It counts as biochemical. As to the method: PAD4 was diluted to 75 nM in Assay Buffer (50 mM Tris-HCl, 2 mM CaCl2), 2 mM DTT, 1 mM PMSF in H2O) and added to wells with various concentrations of compound or DMSO vehicle in Eppendorf tubes (final volume was 100 μL). Following a 60 minute preincubation at 37° C., the reaction was initiated by the addition of 10 μL substrate (22 mM BAEE in H2O) at 37° C. The reaction was stopped after 90 minutes by the addition of 25 μL HClO4 (5 M), 125 μL Reagent A (10 g/L diacetyl monoxime and 15 g/L NaCl in H2O) and 250 μL Reagent B (10 mg/mL antipyrine and 1.0 mg/mL FeCl3 diluted in detection buffer containing 25% H2SO4, 25% H3PO4 and 50% H2O) in sequence. This assay was quenched in an ice-bath for 5 minutes after boiling for 30 minutes. The citrulline formation was measured in fluorescence (κ=465 nm) on microplate reader and the IC50 was calculated by GraphPad Prism.

Each structure is given as a SMILES string.

PAD4, sequence (Q9UM07 whole entry): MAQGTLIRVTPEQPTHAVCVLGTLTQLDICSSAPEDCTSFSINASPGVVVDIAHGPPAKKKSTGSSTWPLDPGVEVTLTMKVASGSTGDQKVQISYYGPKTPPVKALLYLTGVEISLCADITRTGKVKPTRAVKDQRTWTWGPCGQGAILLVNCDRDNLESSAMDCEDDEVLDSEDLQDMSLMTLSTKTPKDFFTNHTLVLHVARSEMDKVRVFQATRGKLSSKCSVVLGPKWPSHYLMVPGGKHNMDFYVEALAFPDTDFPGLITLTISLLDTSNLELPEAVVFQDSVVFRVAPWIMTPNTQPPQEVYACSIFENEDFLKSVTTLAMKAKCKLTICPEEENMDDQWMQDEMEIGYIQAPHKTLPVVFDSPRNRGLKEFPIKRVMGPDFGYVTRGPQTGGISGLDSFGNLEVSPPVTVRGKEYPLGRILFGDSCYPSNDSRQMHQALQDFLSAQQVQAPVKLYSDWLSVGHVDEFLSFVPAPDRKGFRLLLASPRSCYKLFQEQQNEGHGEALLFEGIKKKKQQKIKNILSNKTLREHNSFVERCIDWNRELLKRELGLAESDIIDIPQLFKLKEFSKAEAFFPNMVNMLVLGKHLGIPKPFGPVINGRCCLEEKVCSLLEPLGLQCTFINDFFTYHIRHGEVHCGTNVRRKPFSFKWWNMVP

`COc1ccc(-c2ccccc2)cc1C(=O)N[C@@H](CCCNC(=N)CF)c1ncc(-c2ccccc2)o1` [EX-38, (S)—N-(4-(2-fluoroacetimidamido)-1-(5-phenyloxazol-2-yl)butyl)-4-methoxy-[1,1′-biphenyl]-3-carboxamide]: the IC50 (in general, the midpoint of a concentration-inhibition curve) was in the range of 200 to 500 nM.

`N=C(CF)NCCC[C@H](NC(=O)c1cccc(-c2cccc(Cl)c2)c1)c1ncc(-c2ccccc2)o1` [EX-1, (S)-3′-chloro-N-(4-(2-fluoroacetimidamido)-1-(5-phenyloxazol-2-yl)butyl)-[1,1′-biphenyl]-3-carboxamide] registered an IC50 of 200 to 500 nM.

In the case of `COc1cc2c(OC)cccc2cc1C(=O)N[C@@H](CCCNC(=N)CF)c1ncc(C)o1` [EX-12, (S)-N-(4-(2-fluoroacetimidamido)-1-(5-methyloxazol-2-yl)butyl)-3,5-dimethoxy-2-naphthamide], the IC50 is above 500 nM.

On to `COc1cccc(Cl)c1C(=O)N[C@@H](CCCNC(=N)CF)c1ncc(-c2cccc(Cl)c2)o1` [EX-33, (S)-2-Chloro-N-(1-(5-(3-chlorophenyl)oxazol-2-yl)-4-(2-fluoroacetimidamido)butyl)-6-methoxybenzamide], for which the IC50 was 200 to 500 nM.

Take `CN(C)c1ccc2cc(C(=O)N[C@@H](CCCNC(=N)CCl)c3ncc(-c4ccccc4)o3)ccc2c1` [EX-3, N-[(1S)-4-(2-chloroethanimidamido)-1-(5-phenyl-1,3-oxazol-2-yl)butyl]-6-(dimethylamino)naphthalene-2-carboxamide]: the IC50 lay within 200 to 500 nM.

`COc1cccc(Cl)c1C(=O)N[C@@H](CCCNC(=N)CF)c1ncc(-c2cccc(C)c2)o1` [EX-28, (S)-2-Chloro-N-(4-(2-fluoroacetimidamido)-1-(5-(m-tolyl)oxazol-2-yl)butyl)-6-methoxybenzamide]: the IC50 is 200 to 500 nM.

Consider `COc1ccc(-c2cccc(C(=O)N[C@@H](CCCNC(=N)CF)c3ncc(-c4ccccc4)o3)c2)cc1` [EX-6, (S)—N-(4-(2-fluoroacetimidamido)-1-(5-phenyloxazol-2-yl)butyl)-4′-methoxy-[1,1′-biphenyl]-3-carboxamide], for which the IC50 is 200 to 500 nM.

Turning to `COc1ccc(-c2cnc([C@H](CCCNC(=N)CF)NC(=O)c3c(OC)cccc3OC)o2)cc1` [EX-20, (S)-N-(4-(2-Fluoroacetimidamido)-1-(5-(4-methoxyphenyl)oxazol-2-yl)butyl)-2,6-dimethoxybenzamide], the concentration for half-maximal inhibition (IC50) was 200 to 500 nM.

Consider `N=C(CF)NCCC[C@H](NC(=O)c1cccc(-c2ccc(CO)cc2)c1)c1ncc(-c2ccc(Cl)cc2)o1` [EX-9, (S)—N-(1-(5-(4-chlorophenyl)oxazol-2-yl)-4-(2-fluoroacetimidamido)butyl)-4′-(hydroxymethyl)-[1,1′-biphenyl]-3-carboxamide], for which the IC50 was above 500 nM.

`Cc1cccc(-c2cnc([C@H](CCCNC(=N)CF)NC(=O)c3c(F)cccc3F)o2)c1` [EX-32, (S)-2,6-Difluoro-N-(4-(2-fluoroacetimidamido)-1-(5-(m-tolyl)oxazol-2-yl)butyl)benzamide] gave a half-maximal inhibitory concentration (IC50) of 200 to 500 nM.

Compound `COc1ccc(OCCCNC(=O)CCCC(=O)NCCCOCCOCCOCCCNC(=O)CCCC[C@@H]2SC[C@@H]3NC(=O)N[C@@H]32)cc1C(=O)N[C@@H](CCCNC(=N)CF)c1ncc(-c2cccc(Cl)c2)o1` [EX-42, N^1-(3-(3-(((S)-1-(5-(3-Chlorophenyl)oxazol-2-yl)-4-(2-fluoroacetimidamido)butyl)carbamoyl)-4-methoxyphenoxy)propyl)-N^5-(15-oxo-19-((3aS,4S,6aR)-2-oxohexahydro-1H-thieno[3,4-d]imidazol-4-yl)-4,7,10-trioxa-14-azanonadecyl)glutaramide] displayed a half-inhibitory concentration (IC50) above 500 nM.

As to `N=C(CF)NCCC[C@H](NC(=O)c1c(Cl)cccc1Cl)c1ncc(-c2ccc(F)cc2)o1` [EX-30, (S)-2,6-Dichloro-N-(4-(2-fluoroacetimidamido)-1-(5-(4-fluorophenyl)oxazol-2-yl)butyl)benzamide], the IC50 was above 500 nM.

Take `COc1cccc(-c2cccc(C(=O)N[C@@H](CCCNC(=N)CF)c3ncc(-c4ccccc4)o3)c2)c1` [EX-5, (S)—N-(4-(2-fluoroacetimidamido)-1-(5-phenyloxazol-2-yl)butyl)-3′-methoxy-[1,1′-biphenyl]-3-carboxamide]: the IC50 fell in the range of 200 to 500 nM.

Compound `COc1cccc(Cl)c1C(=O)N[C@@H](CCCNC(=N)CF)c1ncc(-c2cc(F)cc(F)c2)o1` [EX-25, (S)-2-Chloro-N-(1-(5-(3,5-difluorophenyl)oxazol-2-yl)-4-(2-fluoroacetimidamido)butyl)-6-methoxybenzamide] displayed an IC50 of 200 to 500 nM.

As to `COc1cccc(Cl)c1C(=O)N[C@@H](CCCNC(=N)CF)c1ncc(-c2ccc(F)cc2)o1` [EX-24, (S)-2-Chloro-N-(4-(2-fluoroacetimidamido)-1-(5-(4-fluorophenyl)oxazol-2-yl)butyl)-6-methoxybenzamide], the half-inhibitory concentration (IC50) is below 200 nM.
